# Laboratory results from the NIST ThermoML archive (doi:10.1021/je060082s).
# Values joined by “and” are separate entries in the source; they are usually repeats but may differ in a detail not shown here. Equal entries are not always repeated. ± gives the expanded uncertainty stated by the source.
# Settings: Liquid; for mass density: 101.33 kPa, Vibrating tube method
smiles,measurement,setting,value
CCCCCCCC[n+]1ccn(C)c1.F[B-](F)(F)F [1-methyl-3-octylimidazolium tetrafluoroborate],mass density,273.1 K,1120.96 ± 3 kg/m3
same,viscosity,"273.15 K, 100 kPa",2291 ± 57 mPa·s and 2289 ± 57 mPa·s
same,mass density,278.1 K,1117.48 ± 2.9 kg/m3
same,viscosity,"278.15 K, 100 kPa",1477 ± 37 mPa·s and 1478 ± 37 mPa·s
same,mass density,283.1 K,1114.01 ± 2.9 kg/m3
same,viscosity,"283.15 K, 100 kPa",982 ± 25 mPa·s
same,viscosity,"288.15 K, 100 kPa",673 ± 17 mPa·s
same,mass density,288.15 K,1110.55 ± 2.9 kg/m3
same,viscosity,"293.15 K, 100 kPa",473 ± 12 mPa·s
same,mass density,293.15 K,1107.11 ± 2.9 kg/m3
same,viscosity,"298.15 K, 100 kPa",341 ± 9 mPa·s
same,mass density,298.15 K,1103.68 ± 2.9 kg/m3
same,viscosity,"298.15 K, 11200 kPa",393 ± 10 mPa·s
same,viscosity,"298.15 K, 26200 kPa",475.7 ± 12 mPa·s
same,viscosity,"298.15 K, 50500 kPa",638.3 ± 16 mPa·s
same,viscosity,"298.15 K, 51500 kPa",645.9 ± 16 mPa·s
same,viscosity,"298.15 K, 60800 kPa",720.1 ± 18 mPa·s
same,viscosity,"298.15 K, 80200 kPa",902.3 ± 23 mPa·s
same,viscosity,"298.15 K, 100200 kPa",1130 ± 28 mPa·s
same,viscosity,"298.15 K, 116700 kPa",1359 ± 34 mPa·s
same,viscosity,"298.15 K, 117500 kPa",1371 ± 34 mPa·s
same,viscosity,"303.15 K, 100 kPa",251 ± 7 mPa·s
same,mass density,303.15 K,1100.24 ± 2.9 kg/m3
same,viscosity,"308.15 K, 100 kPa",188.4 ± 5.1 mPa·s [middle of 5 runs]
same,viscosity,"308.15 K, 800 kPa",190.1 ± 5.2 mPa·s
same,viscosity,"308.15 K, 2900 kPa",194.9 ± 5.3 mPa·s
same,viscosity,"308.15 K, 5600 kPa",204.3 ± 5.5 mPa·s
same,viscosity,"308.15 K, 10900 kPa",214.2 ± 5.7 mPa·s
same,viscosity,"308.15 K, 26000 kPa",255.1 ± 6.7 mPa·s
same,viscosity,"308.15 K, 50700 kPa",337.1 ± 8.7 mPa·s
same,viscosity,"308.15 K, 76200 kPa",444 ± 11 mPa·s
same,viscosity,"308.15 K, 100300 kPa",571.1 ± 14 mPa·s
same,viscosity,"308.15 K, 124400 kPa",731.7 ± 18 mPa·s
same,viscosity,"308.15 K, 150200 kPa",945.5 ± 24 mPa·s
same,viscosity,"308.15 K, 200100 kPa",1527 ± 38 mPa·s
same,viscosity,"313.15 K, 100 kPa",144.1 ± 4.1 mPa·s
same,mass density,313.15 K,1093.37 ± 2.9 kg/m3
same,viscosity,"323.15 K, 100 kPa",88.8 ± 3 mPa·s and 88.7 ± 3 mPa·s
same,mass density,323.15 K,1086.56 ± 2.9 kg/m3
same,viscosity,"323.15 K, 700 kPa",89.2 ± 3 mPa·s
same,viscosity,"323.15 K, 4900 kPa",93.5 ± 3.1 mPa·s
same,viscosity,"323.15 K, 10500 kPa",99.3 ± 3.2 mPa·s
same,viscosity,"323.15 K, 25800 kPa",118.2 ± 3.6 mPa·s
same,viscosity,"323.15 K, 50800 kPa",150.1 ± 4.3 mPa·s
same,viscosity,"323.15 K, 75700 kPa",191.2 ± 5.2 mPa·s
same,viscosity,"323.15 K, 100600 kPa",241.8 ± 6.4 mPa·s
same,viscosity,"323.15 K, 125500 kPa",303.1 ± 7.8 mPa·s
same,viscosity,"323.15 K, 149900 kPa",376.5 ± 9.6 mPa·s
same,viscosity,"323.15 K, 175500 kPa",469.8 ± 12 mPa·s
same,viscosity,"323.15 K, 199800 kPa",577.3 ± 15 mPa·s
same,viscosity,"333.15 K, 100 kPa",57.8 ± 2.5 mPa·s
same,mass density,333.15 K,1079.83 ± 2.8 kg/m3
same,viscosity,"333.15 K, 10800 kPa",64.4 ± 2.6 mPa·s
same,viscosity,"333.15 K, 25700 kPa",74.6 ± 2.7 mPa·s
same,viscosity,"333.15 K, 50300 kPa",94.3 ± 3.1 mPa·s
same,viscosity,"333.15 K, 75600 kPa",118.7 ± 3.6 mPa·s
same,viscosity,"333.15 K, 100500 kPa",147.7 ± 4.2 mPa·s
same,viscosity,"333.15 K, 125300 kPa",182.5 ± 5 mPa·s
same,viscosity,"333.15 K, 150200 kPa",224.3 ± 6 mPa·s
same,viscosity,"333.15 K, 175100 kPa",274.4 ± 7.1 mPa·s
same,viscosity,"333.15 K, 200000 kPa",334.1 ± 8.6 mPa·s
same,viscosity,"343.15 K, 100 kPa",39.4 ± 2.2 mPa·s
same,mass density,343.15 K,1073.18 ± 2.8 kg/m3
same,viscosity,"348.15 K, 100 kPa",32.8 ± 2.2 mPa·s
same,viscosity,"348.15 K, 300 kPa",32.7 ± 2.2 mPa·s
same,viscosity,"348.15 K, 1600 kPa",33.2 ± 2.2 mPa·s
same,viscosity,"348.15 K, 3100 kPa",33.7 ± 2.2 mPa·s
same,viscosity,"348.15 K, 5400 kPa",34.4 ± 2.2 mPa·s
same,viscosity,"348.15 K, 10200 kPa",36 ± 2.2 mPa·s
same,viscosity,"348.15 K, 25600 kPa",41.4 ± 2.3 mPa·s
same,viscosity,"348.15 K, 50300 kPa",51.5 ± 2.4 mPa·s
same,viscosity,"348.15 K, 75600 kPa",63.6 ± 2.6 mPa·s
same,viscosity,"348.15 K, 100500 kPa",77.7 ± 2.8 mPa·s
same,viscosity,"348.15 K, 125400 kPa",94.3 ± 3.1 mPa·s
same,viscosity,"348.15 K, 150400 kPa",114.3 ± 3.5 mPa·s
same,viscosity,"348.15 K, 175300 kPa",136.8 ± 4 mPa·s
same,viscosity,"348.15 K, 200200 kPa",163.6 ± 4.6 mPa·s
same,viscosity,"348.15 K, 224200 kPa",193.7 ± 5.2 mPa·s
same,viscosity,"353.15 K, 100 kPa",28.1 ± 2.1 mPa·s
same,mass density,353.15 K,1066.6 ± 2.8 kg/m3
same,mass density,363.15 K,1060.08 ± 2.8 kg/m3
CCCCCCCC[n+]1ccn(C)c1.F[P-](F)(F)(F)(F)F [1-octyl-3-methylimidazolium hexafluorophosphate],mass density,273.1 K,1256.13 ± 3.3 kg/m3
same,viscosity,"273.15 K, 100 kPa",6410 ± 160 mPa·s
same,mass density,278.1 K,1252.25 ± 3.3 kg/m3
same,viscosity,"278.15 K, 100 kPa",3889 ± 97 mPa·s
same,mass density,283.1 K,1248.38 ± 3.3 kg/m3
same,viscosity,"283.15 K, 100 kPa",2439 ± 61 mPa·s
same,mass density,288.15 K,1244.52 ± 3.3 kg/m3
same,viscosity,"293.15 K, 100 kPa",1065 ± 27 mPa·s
same,mass density,293.15 K,1240.68 ± 3.3 kg/m3
same,viscosity,"298.15 K, 100 kPa",734.4 ± 18 mPa·s and 731.6 ± 18 mPa·s
same,mass density,298.15 K,1236.84 ± 3.3 kg/m3 and 1236.75 ± 3.3 kg/m3
same,viscosity,"298.15 K, 10200 kPa",853.7 ± 21 mPa·s
same,viscosity,"298.15 K, 24600 kPa",1041 ± 26 mPa·s
same,viscosity,"298.15 K, 39900 kPa",1299 ± 33 mPa·s
same,viscosity,"303.15 K, 100 kPa",519.3 ± 13 mPa·s
same,mass density,303.15 K,1233.01 ± 3.2 kg/m3
same,viscosity,"308.15 K, 100 kPa",374.6 ± 9.6 mPa·s and 370.9 ± 9.5 mPa·s
same,viscosity,"308.15 K, 5500 kPa",404.3 ± 10 mPa·s
same,viscosity,"308.15 K, 9900 kPa",430.2 ± 11 mPa·s
same,viscosity,"308.15 K, 25600 kPa",531.2 ± 13 mPa·s
same,viscosity,"308.15 K, 48400 kPa",716.3 ± 18 mPa·s
same,viscosity,"308.15 K, 74900 kPa",1008 ± 25 mPa·s
same,viscosity,"313.15 K, 100 kPa",276.8 ± 7.2 mPa·s
same,mass density,313.15 K,1225.34 ± 3.2 kg/m3
same,viscosity,"323.15 K, 100 kPa",158 ± 4.5 mPa·s and 159 ± 4.5 mPa·s and 159.2 ± 4.5 mPa·s
same,mass density,323.15 K,1217.7 ± 3.2 kg/m3 and 1217.68 ± 3.2 kg/m3
same,viscosity,"323.15 K, 24800 kPa",217.5 ± 5.8 mPa·s
same,viscosity,"323.15 K, 26300 kPa",222 ± 5.9 mPa·s
same,viscosity,"323.15 K, 49900 kPa",295 ± 7.7 mPa·s
same,viscosity,"323.15 K, 60500 kPa",348.9 ± 9 mPa·s
same,viscosity,"323.15 K, 74800 kPa",395 ± 10 mPa·s
same,viscosity,"323.15 K, 76000 kPa",404.2 ± 10 mPa·s
same,viscosity,"323.15 K, 99700 kPa",524.6 ± 13 mPa·s
same,viscosity,"333.15 K, 100 kPa",97 ± 3.2 mPa·s and 97.9 ± 3.2 mPa·s and 97.8 ± 3.2 mPa·s
same,mass density,333.15 K,1210.29 ± 3.2 kg/m3
same,viscosity,"333.15 K, 13500 kPa",115.2 ± 3.5 mPa·s
same,viscosity,"333.15 K, 30300 kPa",140.6 ± 4 mPa·s
same,viscosity,"333.15 K, 50400 kPa",176.2 ± 4.8 mPa·s
same,viscosity,"333.15 K, 75100 kPa",230.4 ± 6.1 mPa·s
same,viscosity,"333.15 K, 100400 kPa",300.7 ± 7.8 mPa·s
same,viscosity,"333.15 K, 125200 kPa",387.3 ± 9.9 mPa·s
same,viscosity,"343.15 K, 100 kPa",63.7 ± 2.6 mPa·s [middle of 4 runs]
same,mass density,343.15 K,1202.88 ± 3.2 kg/m3
same,viscosity,"343.15 K, 10000 kPa",70 ± 2.7 mPa·s
same,viscosity,"343.15 K, 21300 kPa",81 ± 2.8 mPa·s
same,viscosity,"343.15 K, 51800 kPa",112.7 ± 3.5 mPa·s
same,viscosity,"343.15 K, 72900 kPa",138.7 ± 4 mPa·s
same,viscosity,"343.15 K, 100300 kPa",182.6 ± 5 mPa·s
same,viscosity,"343.15 K, 125900 kPa",233.7 ± 6.2 mPa·s
same,viscosity,"343.15 K, 148800 kPa",296.2 ± 7.7 mPa·s
same,viscosity,"343.15 K, 175900 kPa",378.4 ± 9.7 mPa·s
same,viscosity,"353.15 K, 100 kPa",43 ± 2.3 mPa·s
same,mass density,353.15 K,1195.49 ± 3.1 kg/m3
same,mass density,363.15 K,1188.13 ± 3.1 kg/m3
